Experimental findings from patent publication US11318134B2, “Benzamide compounds” (priority 2018, dated 2022) are described below.

Some results are limits rather than exact numbers.

One may read the Kd as a measure of binding affinity in units of concentration.

The target in assay [1] is T1, Bcl-XL (Homo sapiens (Human), UniProt Q07817). The experiment in a line: Bcl-XL HTRF assay (FAM-Bad peptide). The class given is binding. Particulars: HTRF, 3 nM Bcl-XL, 40 nM FAM-Bad peptide; read-out: Bc1-XL IC50.
T1 sequence (Q07817 whole entry): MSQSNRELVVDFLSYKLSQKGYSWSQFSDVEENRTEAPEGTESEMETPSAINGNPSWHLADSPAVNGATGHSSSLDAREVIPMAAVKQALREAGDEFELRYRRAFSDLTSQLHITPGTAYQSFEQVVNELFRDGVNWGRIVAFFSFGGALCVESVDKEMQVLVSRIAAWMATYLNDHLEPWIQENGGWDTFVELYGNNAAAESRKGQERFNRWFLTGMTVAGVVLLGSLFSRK
Assay [2] has as its target T2, Bcl-2 (Homo sapiens (Human), UniProt P10415). Put plainly: Bcl-2 protein family binding assay (Bcl2scan platform), Bcl-2. As to conditions: BIM peptide ligand, 11-point dilution, read-out: Bc1-2 Kd (nm). On the procedure: (§1) E. coli were grown to log-phase and infected with T7 phage from a frozen stock (multiplicity of infection=0.4) and incubated with shaking at 32° C. until lysis (90-150 minutes). The lysates were centrifuged (5,000×g) and filtered (0.2 μm) to remove cell debris. […] The liganded beads were blocked with excess biotin and washed with blocking buffer (SeaBlock (Pierce), 1% BSA, 0.05% Tween 20, 1 mM DTT) to remove unbound ligand and to reduce non-specific phage binding. […] Test compounds were prepared as 100× stocks in 100% DMSO. Kds were determined using an 11-point 3-fold compound dilution series with one DMSO control point. […] The compounds were then diluted directly into the assays such that the final concentration of DMSO was 0.9%. All reactions performed in polypropylene 384-well plates. Each was a final volume of 0.02 ml. […] The BCL2 concentration in the eluates was measured by qPCR. Binding constants (Kds) were calculated with a standard dose-response curve using the Hill equation:
(§2) [formula] The Hill Slope was set to −1. Curves were fitted using a non-linear least square fit with the Levenberg-Marquardt algorithm.

In assay [3] the target is T2, Bcl-2. The experiment in a line: Bcl-2 HTRF assay (FAM-Bak peptide). It counts as binding. Particulars: HTRF, 4 nM Bcl-2, 100 nM FAM-Bak peptide; read-out: Bc1-2 IC50. (In TR-FRET formats the signal depends on donor and acceptor labels being close together.)
The subject of assay [4] is RS4;11 cells. Put plainly: RS4;11 cell proliferation assay (CellTiter-Glo). It counts as cell-based. As to conditions: Homo sapiens, RS4-11, 48 h, read-out: RS4;11 (nM), CTG IC50. As to the method:
Cell proliferation was measured using the CellTiter-Glo® Luminescent Cell Viability Assay. The assay involved the addition of a single reagent (CellTiter-Glo® Reagent) directly to cells cultured in serum-supplemented medium.
Each compound evaluated was prepared as a DMSO stock solution (10 mM). Compounds were tested in duplicate on each plate, with a 10-point serial dilution curve (1:3 dilution). Compound treatment (1.0 μL) was added from the compound dilution plate to the cell plate. The highest compound concentration was 10 μM (final), with a 0.1% final DMSO concentration. Plates were then incubated at 37° C., 5% CO2. After 48 h of compound treatment for RS4;11 or 72 h for NCI-H1963, cell plates were equilibrated at rt for approximately 30 mins. An equi-volume amount of CellTiter-Glo® Reagent (40 μL) was added to each well. […] Luminescence was recorded using a Envision plate reader according to CellTiter-Glo protocol. IC50 of each compound was calculated using GraphPad Prism by nonlinear regression analysis.
In general terms: ATP-based viability assays read luminescence as a measure of living cells.

For assay [5], the target named is T1, Bcl-XL. Put plainly: Bcl-2 protein family binding assay (Bcl2scan platform), Bcl-XL. As to conditions: BIM peptide ligand, 11-point dilution, read-out: Bc1-XL Kd (nm). As to the method:
as §1, §2

T2 sequence (P10415 whole entry): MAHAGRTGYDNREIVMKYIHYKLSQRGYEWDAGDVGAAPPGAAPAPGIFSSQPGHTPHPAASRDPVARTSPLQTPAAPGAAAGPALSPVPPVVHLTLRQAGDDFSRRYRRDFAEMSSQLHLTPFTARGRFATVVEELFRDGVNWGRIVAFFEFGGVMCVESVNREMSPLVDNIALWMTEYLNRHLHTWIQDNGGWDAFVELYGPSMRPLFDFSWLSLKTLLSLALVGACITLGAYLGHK

With `CC1(C)CCC(CN2CCN(c3ccc(C(=O)NS(=O)(=O)c4ccc(NCC5(F)CCOCC5)c([N+](=O)[O-])c4)c(Oc4cnc5[nH]ccc5c4)c3)CC2)=C(C23CC(C)(C2)C3)C1` [Example 15, 2-(1H-pyrrolo[2,3-b]pyridin-5-yloxy)-4-(4-((4,4-dimethyl-2-(3-methylbicyclo[1.1.1]pentan-1-yl)cyclohex-1-enyl)methyl)piperazin-1-yl)-N-(4-((4-fluorotetrahydro-2H-pyran-4-yl)methylamino)-3-nitrophenylsulfonyl)benzamide], the figures for the IC50 in assay [1], in assay [3] and in assay [4] were no less than 100 nM, no more than 10 nM and less than 100 nM, respectively. Further, the Kd is less than 10 nM in assay [2] and greater than 100 nM in assay [5].
Regarding `CC1(C)CCC(CN2CCN(c3ccc(C(=O)NS(=O)(=O)c4ccc(N[C@H](CCN5CCOCC5)CSc5ccccc5)c([N+](=O)[O-])c4)cc3)CC2)=C(C23CC(C(F)F)(C2)C3)C1` [Example 58, (R)-4-(4-((2-(3-(difluoromethyl)bicyclo[1.1.1]pentan-1-yl)-4,4-dimethylcyclohex-1-en-1-yl)methyl)piperazin-1-yl)-N-((4-((4-morpholino-1-(phenylthio)butan-2-yl)amino)-3-nitrophenyl)sulfonyl)benzamide], the values for the IC50 in assay [1], in assay [3] and in assay [4] were no more than 10 nM, no more than 10 nM and 100 to 1000 nM, respectively.
On to `CN(CCO)CC[C@H](CSc1ccccc1)Nc1ccc(S(=O)(=O)NC(=O)c2ccc(N3CCN(CC4=C(C56CC(C)(C5)C6)CC(C)(C)CC4)CC3)cc2)cc1S(=O)(=O)C(F)(F)F` [Example 49, (R)-4-(4-((4,4-dimethyl-2-(3-methylbicyclo[1.1.1]pentan-1-yl)cyclohex-1-en-1-yl)methyl)piperazin-1-yl)-N-((4-((4-((2-hydroxyethyl)(methyl)amino)-1-(phenylthio)butan-2-yl)amino)-3-((trifluoromethyl)sulfonyl)phenyl)sulfonyl)benzamide], for which the values for the IC50 in assay [1], in assay [3] and in assay [4] were no more than 10 nM, no more than 10 nM and 100 to 1000 nM, respectively.
Regarding `CC1(C)CCC(C23CC(Cl)(C2)C3)=C(CN2CCN(c3ccc(C(=O)NS(=O)(=O)c4ccc(N[C@H](CCN5CCC(O)CC5)CSc5ccccc5)c(S(=O)(=O)C(F)(F)F)c4)cc3)CC2)C1` [Example 46], the figures for the IC50 in assay [1], in assay [3] and in assay [4] were no more than 10 nM, no more than 10 nM and 100 to 1000 nM, respectively.
On to `CC1(C)CCC(CN2CCN(c3ccc(C(=O)NS(=O)(=O)c4ccc(N[C@H](CCN5CCOCC5)CSc5ccccc5)c(S(=O)(=O)C(F)(F)F)c4)cc3)CC2)=C(C23CC(C(F)F)(C2)C3)C1` [Example 55, (R)-4-(4-((2-(3-(difluoromethyl)bicyclo[1.1.1]pentan-1-yl)-4,4-dimethylcyclohex-1-en-1-yl)methyl)piperazin-1-yl)-N-((4-((4-morpholino-1-(phenylthio)butan-2-yl)amino)-3-((trifluoromethyl)sulfonyl)phenyl)sulfonyl)benzamide], for which the IC50 was no more than 10 nM in assay [1], no more than 10 nM in assay [3] and 100 to 1000 nM in assay [4].
With `O=C(NS(=O)(=O)c1ccc(N[C@H](CCN2CCC(O)CC2)CSc2ccccc2)c(S(=O)(=O)C(F)(F)F)c1)c1ccc(N2CCN(CC3=C(C45CC(C(F)F)(C4)C5)CC4(CCC4)CC3)CC2)cc1` [Example 67, (R)-4-(4-((6-(3-(difluoromethyl)bicyclo[1.1.1]pentan-1-yl)spiro[3.5]non-6-en-7-yl)methyl)piperazin-1-yl)-N-((4-((4-(4-hydroxypiperidin-1-yl)-1-(phenylthio)butan-2-yl)amino)-3-((trifluoromethyl)sulfonyl)phenyl)sulfonyl)benzamide], the IC50 is no more than 10 nM in assay [1], no more than 10 nM in assay [3] and 100 to 1000 nM in assay [4].
Consider `CN1CCOC(CNc2ccc(S(=O)(=O)NC(=O)c3ccc(N4CCN(CC5=C(C67CC(C)(C6)C7)CC(C)(C)CC5)CC4)cc3Oc3cnc4[nH]ccc4c3)cc2[N+](=O)[O-])C1` (centres unmarked) [Example 17, 2-((1H-pyrrolo[2,3-b]pyridin-5-yl)oxy)-4-(4-((4,4-dimethyl-2-(3-methylbicyclo[1.1.1]pentan-1-yl)cyclohex-1-en-1-yl)methyl)piperazin-1-yl)-N-((4-(((4-methylmorpholin-2-yl)methyl)amino)-3-nitrophenyl)sulfonyl)benzamide], for which the values for the Kd in assay [2] and in assay [5] were less than 10 nM and 10 to 100 nM, respectively. The IC50 in assay [4] is less than 100 nM.
The like results for `CC1(C)CCC(CN2CCN(c3ccc(C(=O)NS(=O)(=O)c4ccc(NCC5(F)CCOCC5)c([N+](=O)[O-])c4)c(Oc4cnc5[nH]ccc5c4)c3)CC2)=C(C23CC(C(F)F)(C2)C3)C1` [Example 35, 2-((1H-pyrrolo[2,3-b]pyridin-5-yl)oxy)-4-(4-((2-(3-(difluoromethyl)bicyclo[1.1.1]pentan-1-yl)-4,4-dimethylcyclohex-1-en-1-yl)methyl)piperazin-1-yl)-N-((4-(((4-fluorotetrahydro-2H-pyran-4-yl)methyl)amino)-3-nitrophenyl)sulfonyl)benzamide] were, in that order, less than 10 nM, greater than 100 nM and less than 100 nM.
The like results for `CC1(C)CCC(CN2CCN(c3ccc(C(=O)NS(=O)(=O)c4ccc(NCC5(F)CCOCC5)c([N+](=O)[O-])c4)c(Oc4cnc5[nH]ccc5c4)c3)CC2)=C(C23CC(C(F)(F)F)(C2)C3)C1` [Example 30, 2-((1H-pyrrolo[2,3-b]pyridin-5-yl)oxy)-4-(4-((4,4-dimethyl-2-(3-(trifluoromethyl)bicyclo[1.1.1]pentan-1-yl)cyclohex-1l-en-1-yl)methyl)piperazin-1-yl)-N-((4-(((4-fluorotetrahydro-2H-pyran-4-yl)methyl)amino)-3-nitrophenyl)sulfonyl)benzamide] were, in that order, less than 10 nM, greater than 100 nM and less than 100 nM.
The like results for `CC1(C)CCC(CN2CCN(c3ccc(C(=O)NS(=O)(=O)c4ccc(NCC5CCOCC5)c([N+](=O)[O-])c4)c(Oc4cnc5[nH]ccc5c4)c3)CC2)=C(C23CC(C)(C2)C3)C1` [Example 9, 2-(1H-pyrrolo[2,3-b]pyridin-5-yloxy)-4-(4-((4,4-dimethyl-2-(3-methylbicyclo[1.1.1]pentan-1-yl)cyclohex-1-enyl)methyl)piperazin-1-yl)-N-(3-nitro-4-((tetrahydro-2H-pyran-4-yl)methylamino)phenylsulfonyl)benzamide] were, in that order, less than 10 nM, greater than 100 nM and less than 100 nM.
Consider `CCC12CC(C3=C(CN4CCN(c5ccc(C(=O)NS(=O)(=O)c6ccc(OCC7(F)CCOCC7)c([N+](=O)[O-])c6)c(Oc6cnc7[nH]ccc7c6)c5)CC4)CCC(C)(C)C3)(C1)C2` [Example 26, 2-((1H-pyrrolo[2,3-b]pyridin-5-yl)oxy)-4-(4-((2-(3-ethylbicyclo[1.1.1]pentan-1-yl)-4,4-dimethylcyclohex-1-en-1-yl)methyl)piperazin-1-yl)-N-((4-((4-fluorotetrahydro-2H-pyran-4-yl)methoxy)-3-nitrophenyl)sulfonyl)benzamide], for which the Kd is less than 10 nM in assay [2] and greater than 100 nM in assay [5]. Also, the IC50 in assay [4] is less than 100 nM.
With `CCC12CC(C3=C(CN4CCN(c5ccc(C(=O)NS(=O)(=O)c6ccc(N[C@H](CCN(C)CCO)CSc7ccccc7)c(S(=O)(=O)C(F)(F)F)c6)cc5)CC4)CCC(C)(C)C3)(C1)C2` [Example 50, (R)-4-(4-((2-(3-Ethylbicyclo[1.1.1]pentan-1-yl)-4,4-dimethylcyclohex-1-en-1-yl)methyl)piperazin-1-yl)-N-((4-((4-((2-hydroxyethyl)(methyl)amino)-1-(phenylthio)butan-2-yl)amino)-3-((trifluoromethyl)sulfonyl)phenyl)sulfonyl)benzamide], the IC50 was no more than 10 nM in assay [1], no more than 10 nM in assay [3] and 100 to 1000 nM in assay [4].
